Numbers after ± are expanded uncertainties.
Conditions: Liquid, Brillouin light scattering

For `CCOC(C)(C)C` [2-ethoxy-2-methylpropane], the speed of sound (293.15 K, 10 kPa) was 1059.2 ± 5.4 m/s, the speed of sound (293.15 K, 1000 kPa) was 1060.3 ± 5.4 m/s and the speed of sound (293.15 K, 2500 kPa) was 1070.5 ± 5.5 m/s. It also gave a speed of sound (293.15 K, 4000 kPa) of 1080.8 ± 5.5 m/s, a speed of sound (293.15 K, 5500 kPa) of 1091.1 ± 5.5 m/s and a speed of sound (293.15 K, 7000 kPa) of 1101.5 ± 5.6 m/s. The speed of sound (293.15 K, 8500 kPa) was 1111.9 ± 5.7 m/s, the speed of sound (293.15 K, 10000 kPa) was 1122.4 ± 5.7 m/s and the speed of sound (303.15 K, 10 kPa) was 1013 ± 5.2 m/s. For the same compound, the speed of sound (303.15 K, 1000 kPa) was 1019.4 ± 5.2 m/s, the speed of sound (303.15 K, 2500 kPa) was 1030.3 ± 5.2 m/s and the speed of sound (303.15 K, 4000 kPa) was 1041.2 ± 5.3 m/s. For the same compound, the speed of sound (303.15 K, 5500 kPa) was 1052 ± 5.4 m/s, the speed of sound (303.15 K, 7000 kPa) was 1062.8 ± 5.4 m/s and the speed of sound (303.15 K, 8500 kPa) was 1073.5 ± 5.5 m/s. For the same compound, the speed of sound (303.15 K, 10000 kPa) was 1084.2 ± 5.5 m/s, the speed of sound (313.15 K, 10 kPa) was 967.71 ± 6.7 m/s and the speed of sound (313.15 K, 1000 kPa) was 978.21 ± 5 m/s. For the same compound, the speed of sound (313.15 K, 2500 kPa) was 989.92 ± 5.1 m/s, the speed of sound (313.15 K, 4000 kPa) was 1001.5 ± 5.1 m/s and the speed of sound (313.15 K, 5500 kPa) was 1012.9 ± 5.2 m/s. For the same compound, the speed of sound (313.15 K, 7000 kPa) was 1024.2 ± 5.2 m/s, the speed of sound (313.15 K, 8500 kPa) was 1035.3 ± 5.3 m/s and the speed of sound (313.15 K, 10000 kPa) was 1046.3 ± 5.3 m/s. It also gave a speed of sound (323.15 K, 20 kPa) of 923.32 ± 5.7 m/s, a speed of sound (323.15 K, 1000 kPa) of 936.6 ± 4.8 m/s and a speed of sound (323.15 K, 2500 kPa) of 949.23 ± 4.9 m/s. The speed of sound (323.15 K, 4000 kPa) was 961.61 ± 4.9 m/s, the speed of sound (323.15 K, 5500 kPa) was 973.77 ± 5 m/s and the speed of sound (323.15 K, 7000 kPa) was 985.68 ± 5 m/s. It also gave a speed of sound (323.15 K, 8500 kPa) of 997.36 ± 5.1 m/s, a speed of sound (323.15 K, 10000 kPa) of 1008.8 ± 5.2 m/s and a speed of sound (333.15 K, 40 kPa) of 879.69 ± 5.8 m/s. It also gave a speed of sound (333.15 K, 1000 kPa) of 894.61 ± 4.6 m/s, a speed of sound (333.15 K, 2500 kPa) of 908.27 ± 4.7 m/s and a speed of sound (333.15 K, 4000 kPa) of 921.59 ± 4.7 m/s. It also gave a speed of sound (333.15 K, 5500 kPa) of 934.59 ± 4.8 m/s, a speed of sound (333.15 K, 7000 kPa) of 947.25 ± 4.9 m/s and a speed of sound (333.15 K, 8500 kPa) of 959.59 ± 4.9 m/s. For the same compound, the speed of sound (333.15 K, 10000 kPa) was 971.59 ± 5 m/s, the speed of sound (343.15 K, 60 kPa) was 836.71 ± 6.2 m/s and the speed of sound (343.15 K, 1000 kPa) was 852.23 ± 4.4 m/s. For the same compound, the speed of sound (343.15 K, 2500 kPa) was 867.04 ± 4.5 m/s, the speed of sound (343.15 K, 4000 kPa) was 881.42 ± 4.5 m/s and the speed of sound (343.15 K, 5500 kPa) was 895.38 ± 4.6 m/s. The speed of sound (343.15 K, 7000 kPa) was 908.92 ± 4.7 m/s, the speed of sound (343.15 K, 8500 kPa) was 922.03 ± 4.8 m/s and the speed of sound (343.15 K, 10000 kPa) was 934.71 ± 4.8 m/s. For the same compound, the speed of sound (353.15 K, 90 kPa) was 794.25 ± 4.1 m/s, the speed of sound (353.15 K, 1000 kPa) was 809.46 ± 4.2 m/s and the speed of sound (353.15 K, 2500 kPa) was 825.54 ± 4.3 m/s. It also gave a speed of sound (353.15 K, 4000 kPa) of 841.11 ± 4.3 m/s, a speed of sound (353.15 K, 5500 kPa) of 856.15 ± 4.4 m/s and a speed of sound (353.15 K, 7000 kPa) of 870.68 ± 4.5 m/s. It also gave a speed of sound (353.15 K, 8500 kPa) of 884.68 ± 4.6 m/s, a speed of sound (353.15 K, 10000 kPa) of 898.16 ± 4.6 m/s and a speed of sound (363.15 K, 130 kPa) of 752.18 ± 3.9 m/s. For the same compound, the speed of sound (363.15 K, 1000 kPa) was 766.3 ± 4 m/s, the speed of sound (363.15 K, 2500 kPa) was 783.78 ± 4.1 m/s and the speed of sound (363.15 K, 4000 kPa) was 800.64 ± 4.1 m/s. The speed of sound (363.15 K, 5500 kPa) was 816.89 ± 4.2 m/s, the speed of sound (363.15 K, 7000 kPa) was 832.52 ± 4.3 m/s and the speed of sound (363.15 K, 8500 kPa) was 847.54 ± 4.4 m/s. The speed of sound (363.15 K, 10000 kPa) was 861.94 ± 4.5 m/s, the speed of sound (373.15 K, 180 kPa) was 710.37 ± 3.7 m/s and the speed of sound (373.15 K, 1000 kPa) was 722.76 ± 3.8 m/s. For the same compound, the speed of sound (373.15 K, 2500 kPa) was 741.75 ± 3.9 m/s, the speed of sound (373.15 K, 4000 kPa) was 760.03 ± 4 m/s and the speed of sound (373.15 K, 5500 kPa) was 777.6 ± 4 m/s. For the same compound, the speed of sound (373.15 K, 7000 kPa) was 794.46 ± 4.2 m/s, the speed of sound (373.15 K, 8500 kPa) was 810.61 ± 4.2 m/s and the speed of sound (373.15 K, 10000 kPa) was 826.04 ± 4.3 m/s. The speed of sound (383.15 K, 250 kPa) was 668.66 ± 3.6 m/s, the speed of sound (383.15 K, 1000 kPa) was 678.84 ± 3.6 m/s and the speed of sound (383.15 K, 2500 kPa) was 699.46 ± 3.7 m/s. It also gave a speed of sound (383.15 K, 4000 kPa) of 719.28 ± 3.8 m/s, a speed of sound (383.15 K, 5500 kPa) of 738.29 ± 3.9 m/s and a speed of sound (383.15 K, 7000 kPa) of 756.49 ± 4 m/s. The speed of sound (383.15 K, 8500 kPa) was 773.88 ± 4.1 m/s, the speed of sound (383.15 K, 10000 kPa) was 790.47 ± 4.1 m/s and the speed of sound (393.15 K, 340 kPa) was 626.87 ± 3.4 m/s. For the same compound, the speed of sound (393.15 K, 1000 kPa) was 634.52 ± 3.4 m/s, the speed of sound (393.15 K, 2500 kPa) was 656.9 ± 3.5 m/s and the speed of sound (393.15 K, 4000 kPa) was 678.37 ± 3.6 m/s. It also gave a speed of sound (393.15 K, 5500 kPa) of 698.94 ± 3.7 m/s, a speed of sound (393.15 K, 7000 kPa) of 718.61 ± 3.8 m/s and a speed of sound (393.15 K, 8500 kPa) of 737.37 ± 3.9 m/s. The speed of sound (393.15 K, 10000 kPa) was 755.23 ± 4 m/s, the speed of sound (403.15 K, 440 kPa) was 584.83 ± 3.1 m/s and the speed of sound (403.15 K, 1000 kPa) was 589.82 ± 3.2 m/s. The speed of sound (403.15 K, 2500 kPa) was 614.07 ± 3.3 m/s, the speed of sound (403.15 K, 4000 kPa) was 637.32 ± 3.4 m/s and the speed of sound (403.15 K, 5500 kPa) was 659.57 ± 3.5 m/s. It also gave a speed of sound (403.15 K, 7000 kPa) of 680.82 ± 3.6 m/s, a speed of sound (403.15 K, 8500 kPa) of 701.07 ± 3.7 m/s and a speed of sound (403.15 K, 10000 kPa) of 720.33 ± 3.8 m/s. For the same compound, the speed of sound (413.15 K, 570 kPa) was 542.3 ± 3 m/s, the speed of sound (413.15 K, 1000 kPa) was 544.74 ± 3 m/s and the speed of sound (413.15 K, 2500 kPa) was 570.98 ± 3.1 m/s. The speed of sound (413.15 K, 4000 kPa) was 596.12 ± 3.2 m/s, the speed of sound (413.15 K, 5500 kPa) was 620.17 ± 3.3 m/s and the speed of sound (413.15 K, 7000 kPa) was 643.12 ± 3.5 m/s. The speed of sound (413.15 K, 8500 kPa) was 664.98 ± 3.6 m/s, the speed of sound (413.15 K, 10000 kPa) was 685.74 ± 3.7 m/s and the speed of sound (423.15 K, 730 kPa) was 499.06 ± 2.9 m/s. The speed of sound (423.15 K, 2500 kPa) was 527.62 ± 2.9 m/s, the speed of sound (423.15 K, 4000 kPa) was 554.78 ± 3 m/s and the speed of sound (423.15 K, 5500 kPa) was 580.74 ± 3.1 m/s. The speed of sound (423.15 K, 7000 kPa) was 605.52 ± 3.3 m/s, the speed of sound (423.15 K, 8500 kPa) was 629.1 ± 3.4 m/s and the speed of sound (423.15 K, 10000 kPa) was 651.49 ± 3.5 m/s.

Reference: the NIST ThermoML archive (doi:10.1016/j.fluid.2015.10.026)
